The subject of test [1] is Radical scavenging activity. Nature of the test: Antioxidant activity assessed as DPPH free radical scavenging activity after 30 mins by microplate reader assay. Format: functional. On the technique in general: The DPPH test is a chemical assay of radical scavenging.
A short description of test [2]: Antioxidant activity assessed as inhibition of lipid peroxidation. In kind it is functional.

pIC50: −log10 of the molar value.

Usually pIC50 stands for the IC50 on a negative log10 scale, so that one unit is a factor of ten.

Consider `Oc1ccc([C@H]2c3c(O)cc(O)cc3[C@H]3c4c(O)cc(O)cc4[C@@H]2[C@H]3c2ccc(O)cc2)cc1`, for which the pIC50 in test [1] and in test [2] was under 3.70 throughout.
On to `Oc1ccc(C2[C@H]3c4cc(O)cc(O)c4[C@@H](c4ccc(O)cc4)[C@@H]2c2cc(O)cc(O)c23)cc1` (stereo partly drawn), for which the negative-log IC50 (pIC50) in test [1] and in test [2] was under 3.70 each time.
Regarding `Oc1ccc([C@H]2Oc3cc(O)cc4c3[C@@H]2c2cc(O)cc3c2[C@@H](c2cc(O)cc5c2[C@@H]4[C@H](c2ccc(O)cc2)O5)[C@H](c2ccc(O)cc2)O3)cc1` (relative stereo), the pIC50 in test [1] and in test [2] was under 3.70 in each case.
For the compound `Oc1ccc([C@@H]2c3c(O)cc(O)cc3[C@H]3[C@H](c4ccc(O)cc4)c4c(O)cc(O)cc4[C@@H]23)cc1` (relative stereo) [PALLIDOL], the pIC50 is 3.78 in test [1] and 3.89 in test [2].
On to `Cc1c(C)c2c(c(C)c1O)CC[C@@](C)(CCC[C@H](C)CCC[C@H](C)CCCC(C)C)O2` [ALPHA-TOCOPHEROL], for which the pIC50 in test [2] is 4.90.
For the compound `O=C1O[C@H]([C@@H](O)CO)C(O)=C1O` [ASCORBIC ACID], the pIC50 in test [1] was 4.24.
Take `O=C(c1ccc(O)cc1)[C@H]1c2cc(O)cc(O)c2[C@@H](c2ccc(O)cc2)[C@H]1c1cc(O)cc(O)c1` [CARAPHENOL B]: the values for the negative logarithm of the IC50 (pIC50) in test [1] and in test [2] were 4.13 and 4.37, respectively.
In the case of `COc1cc(O)cc2c1C(=O)C(O)(Cc1ccc(O)cc1)O2` (stereo not drawn) [CARPUSIN], the negative-log IC50 (pIC50) in test [1] and in test [2] was under 3.70 in each case.
As to `Oc1ccc([C@H]2Oc3cc(O)cc([C@@H]4[C@H](c5cc(O)cc(O)c5)[C@@H](c5ccc(O)cc5)O[C@H]4c4ccc(O)cc4)c3[C@@H]2c2cc(O)c3c(c2)[C@@H](c2cc(O)cc(O)c2)[C@H](c2ccc(O)cc2)O3)cc1` [KOBOPHENOL A], the negative-log IC50 (pIC50) in test [1] and in test [2] was under 3.70 in each case.
Regarding `Oc1ccc(/C=C/c2cc(O)cc(O)c2)cc1` [RESVERATROL], the pIC50 in test [1] was 4.04; in test [2], 4.52.

Values taken from ChEMBL document CHEMBL1938305, “Antioxidative oligostilbenes from Caragana sinica” (Bioorg Med Chem Lett, 2012).
